According to US20240132431A1, “METHOD FOR ALKYLATING ACIDIC FUNCTIONAL GROUP” (Chugai Seiyaku Kabushiki Kaisha, priority 2021, published 2024):

Target: T1, Bcl-2 protein (Recombinant Human Bcl-2 Protein) (Homo sapiens, UniProt P10415)
T1 construct: purchased Novus NBP2-34889
Assay: Binding evaluation of mixture library compounds to Bcl-2 using AS-MS (affinity selection mass spectrometry)
Conditions: AS-MS, mixture of 1200 compounds, Bcl-2, ASMS Ratio(%)=(A−C)/B×100; for ASMS ratio (%) n = 1: replicate n = 1; for ASMS ratio (%) n = 2: replicate n = 2
Method in brief: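 Pooled library of ~1200 compounds ([…] each, final) incubated with recombinant human Bcl-2 (20 μM final) in Tris-HCl pH 7.4, NaCl, Tween-20, DTT buffer, dark, 23° C., 1 h. Bound fraction recovered by SEC spin column, organic extraction, reversed-phase LC/MS. ASMS Ratio (%) = (A−C)/B×100 versus protein-free standard and SEC blank.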

T1 sequence (P10415 whole entry): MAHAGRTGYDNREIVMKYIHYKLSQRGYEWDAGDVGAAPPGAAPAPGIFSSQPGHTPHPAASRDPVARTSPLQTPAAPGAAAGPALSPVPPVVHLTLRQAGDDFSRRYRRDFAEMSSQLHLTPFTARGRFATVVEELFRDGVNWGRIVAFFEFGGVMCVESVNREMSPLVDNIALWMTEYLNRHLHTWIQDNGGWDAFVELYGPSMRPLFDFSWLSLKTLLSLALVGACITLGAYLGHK

| Structure (SMILES) | ASMS ratio (%) n = 1 | ASMS ratio (%) n = 2 |
| --- | --- | --- |
| CCOc1cccc(-c2ccc(C(=O)N3CCN(c4ccc(C(=O)NCC56CC7CC(CC(C7)C5)C6)cc4)CC3)c3ccccc23)c1 [B1A035-01, N-(1-Adamantylmethyl)-4-[4-[4-(3-ethoxyphenyl)naphthalene-1-carbonyl]piperazin-1-yl]benzamide] | 14.9% | −7.0% |
| CCOc1cncc(-c2ccc(C(=O)N3CCN(c4ccc(C(=O)NCC56CC7CC(CC(C7)C5)C6)cc4)CC3)c3ccccc23)c1 [B1A036-01, N-(1-Adamantylmethyl)-4-[4-[4-(5-ethoxypyridin-3-yl)naphthalene-1-carbonyl]piperazin-1-yl]benzamide] | 0.4% | 3.1% |
| CCOc1cccc(-c2cc(C(=O)N3CCN(c4ccc(C(=O)NCC56CC7CC(CC(C7)C5)C6)cc4)CC3)cc(C(C)(C)C)c2)c1 [B1A037-01, N-(1-Adamantylmethyl)-4-[4-[3-tert-butyl-5-(3-ethoxyphenyl)benzoyl]piperazin-1-yl]benzamide] | 3.3% | −5.0% |
| CCOc1cncc(-c2cc(C(=O)N3CCN(c4ccc(C(=O)NCC56CC7CC(CC(C7)C5)C6)cc4)CC3)cc(C(C)(C)C)c2)c1 [B1A038-01, N-(1-Adamantylmethyl)-4-[4-[3-tert-butyl-5-(5-ethoxypyridin-3-yl)benzoyl]piperazin-1-yl]benzamide] | 6.5% | −6.4% |
| CCOc1cccc(-c2cc(C(=O)N3CCN(c4ccc(C(=O)NCC56CC7CC(CC(C7)C5)C6)cc4)CC3)cc(C(F)(F)F)c2)c1 [B1A039-01, N-(1-Adamantylmethyl)-4-[4-[3-(3-ethoxyphenyl)-5-(trifluoromethyl)benzoyl]piperazin-1-yl]benzamide] | 6.3% | −8.4% |
| CCOc1cncc(-c2cc(C(=O)N3CCN(c4ccc(C(=O)NCC56CC7CC(CC(C7)C5)C6)cc4)CC3)cc(C(F)(F)F)c2)c1 [B1A040-01, N-(1-Adamantylmethyl)-4-[4-[3-(5-ethoxypyridin-3-yl)-5-(trifluoromethyl)benzoyl]piperazin-1-yl]benzamide] | 10.4% | 8.4% |
| CCOc1cccc(C#Cc2cc(C(=O)N3CCN(c4ccc(C(=O)NCC56CC7CC(CC(C7)C5)C6)cc4)CC3)cc(C(F)(F)F)c2)c1 [B1A041-01, N-(1-Adamantylmethyl)-4-[4-[3-[2-(3-ethoxyphenyl)ethynyl]-5-(trifluoromethyl)benzoyl]piperazin-1-yl]benzamide] | −2.4% | −4.0% |
| CCOc1cncc(C#Cc2cc(C(=O)N3CCN(c4ccc(C(=O)NCC56CC7CC(CC(C7)C5)C6)cc4)CC3)cc(C(F)(F)F)c2)c1 [B1A042-01, N-(1-Adamantylmethyl)-4-[4-[3-[2-(5-ethoxypyridin-3-yl)ethynyl]-5-(trifluoromethyl)benzoyl]piperazin-1-yl]benzamide] | 12.5% | −8.5% |
| CCOc1cccc(-c2cnn(-c3cc(C(=O)N4CCN(c5ccc(C(=O)NCC67CC8CC(CC(C8)C6)C7)cc5)CC4)cc(C(F)(F)F)c3)c2)c1 [B1A043-01, N-(1-Adamantylmethyl)-4-[4-[3-[4-(3-ethoxyphenyl)pyrazol-1-yl]-5-(trifluoromethyl)benzoyl]piperazin-1-yl]benzamide] | 3.8% | −2.9% |
| CCOc1cncc(-c2cnn(-c3cc(C(=O)N4CCN(c5ccc(C(=O)NCC67CC8CC(CC(C8)C6)C7)cc5)CC4)cc(C(F)(F)F)c3)c2)c1 [B1A044-01, N-(1-Adamantylmethyl)-4-[4-[3-[4-(5-ethoxypyridin-3-yl)pyrazol-1-yl]-5-(trifluoromethyl)benzoyl]piperazin-1-yl]benzamide] | 2.6% | −1.9% |
| CCOc1cccc(-c2ccccc2CN2CCN(c3ccc(C(=O)NCC45CC6CC(CC(C6)C4)C5)cc3)CC2)c1 [B1A045-01, N-(1-Adamantylmethyl)-4-[4-[[2-(3-ethoxyphenyl)phenyl]methyl]piperazin-1-yl]benzamide] | 1.1% | −2.2% |
| CCOc1cncc(-c2ccccc2CN2CCN(c3ccc(C(=O)NCC45CC6CC(CC(C6)C4)C5)cc3)CC2)c1 [B1A046-01, N-(1-Adamantylmethyl)-4-[4-[[2-(5-ethoxypyridin-3-yl)phenyl]methyl]piperazin-1-yl]benzamide] | 0.0% | 0.0% |
| CCOc1cccc(-c2ccc(CN3CCN(c4ccc(C(=O)NCC56CC7CC(CC(C7)C5)C6)cc4)CC3)cc2C)c1 [B1A047-01, N-(1-Adamantylmethyl)-4-[4-[[4-(3-ethoxyphenyl)-3-methylphenyl]methyl]piperazin-1-yl]benzamide] | 3.2% | 2.5% |
| CCOc1cncc(-c2ccc(CN3CCN(c4ccc(C(=O)NCC56CC7CC(CC(C7)C5)C6)cc4)CC3)cc2C)c1 [B1A048-01, N-(1-Adamantylmethyl)-4-[4-[[4-(5-ethoxypyridin-3-yl)-3-methylphenyl]methyl]piperazin-1-yl]benzamide] | 1.5% | 3.6% |
| CCOc1cccc(-c2ccc(CN3CCN(c4ccc(C(=O)NCC56CC7CC(CC(C7)C5)C6)cc4)CC3)c(CC)c2)c1 [B1A049-01, N-(1-Adamantylmethyl)-4-[4-[[4-(3-ethoxyphenyl)-2-ethylphenyl]methyl]piperazin-1-yl]benzamide] | 4.1% | −9.1% |
| CCOc1cncc(-c2ccc(CN3CCN(c4ccc(C(=O)NCC56CC7CC(CC(C7)C5)C6)cc4)CC3)c(CC)c2)c1 [B1A050-01, N-(1-Adamantylmethyl)-4-[4-[[4-(5-ethoxypyridin-3-yl)-2-ethylphenyl]methyl]piperazin-1-yl]benzamide] | 0.6% | 3.0% |
| CCOc1cccc(-c2ccc(CN3CCN(c4ccc(C(=O)NCC56CC7CC(CC(C7)C5)C6)cc4)CC3)cc2F)c1 [B1A051-01, N-(1-Adamantylmethyl)-4-[4-[[4-(3-ethoxyphenyl)-3-fluorophenyl]methyl]piperazin-1-yl]benzamide] | −5.4% | −4.2% |
| CCOc1cncc(-c2ccc(CN3CCN(c4ccc(C(=O)NCC56CC7CC(CC(C7)C5)C6)cc4)CC3)cc2F)c1 [B1A052-01, N-(1-Adamantylmethyl)-4-[4-[[4-(5-ethoxypyridin-3-yl)-3-fluorophenyl]methyl]piperazin-1-yl]benzamide] | 4.2% | −6.2% |
| CCOc1cccc(-c2ccc(CN3CCN(c4ccc(C(=O)NCC56CC7CC(CC(C7)C5)C6)cc4)CC3)c(OC)c2)c1 [B1A053-01, N-(1-Adamantylmethyl)-4-[4-[[4-(3-ethoxyphenyl)-2-methoxyphenyl]methyl]piperazin-1-yl]benzamide] | 13.2% | 4.8% |
| CCOc1cncc(-c2ccc(CN3CCN(c4ccc(C(=O)NCC56CC7CC(CC(C7)C5)C6)cc4)CC3)c(OC)c2)c1 [B1A054-01, N-(1-Adamantylmethyl)-4-[4-[[4-(5-ethoxypyridin-3-yl)-2-methoxyphenyl]methyl]piperazin-1-yl]benzamide] | 0.0% | 0.0% |
| CCOc1cccc(-c2cc(CN3CCN(c4ccc(C(=O)NCC56CC7CC(CC(C7)C5)C6)cc4)CC3)cc(OCC)c2)c1 [B1A055-01, N-(1-Adamantylmethyl)-4-[4-[[3-ethoxy-5-(3-ethoxyphenyl)phenyl]methyl]piperazin-1-yl]benzamide] | −0.1% | −14.4% |
| CCOc1cncc(-c2cc(CN3CCN(c4ccc(C(=O)NCC56CC7CC(CC(C7)C5)C6)cc4)CC3)cc(OCC)c2)c1 [B1A056-01, N-(1-Adamantylmethyl)-4-[4-[[3-ethoxy-5-(5-ethoxypyridin-3-yl)phenyl]methyl]piperazin-1-yl]benzamide] | 9.7% | 4.0% |
| CCOc1cccc(-c2cc(CN3CCN(c4ccc(C(=O)NCC56CC7CC(CC(C7)C5)C6)cc4)CC3)cc(OC(C)C)c2)c1 [B1A057-01, N-(1-Adamantylmethyl)-4-[4-[[3-(3-ethoxyphenyl)-5-propan-2-yloxyphenyl]methyl]piperazin-1-yl]benzamide] | 0.0% | 0.0% |
| CCOc1cncc(-c2cc(CN3CCN(c4ccc(C(=O)NCC56CC7CC(CC(C7)C5)C6)cc4)CC3)cc(OC(C)C)c2)c1 [B1A058-01, N-(1-Adamantylmethyl)-4-[4-[[3-(5-ethoxypyridin-3-yl)-5-propan-2-yloxyphenyl]methyl]piperazin-1-yl]benzamide] | – | 0.0% |
| CCOc1cccc(-c2cc(OC)c(CN3CCN(c4ccc(C(=O)NCC56CC7CC(CC(C7)C5)C6)cc4)CC3)c(OC)c2)c1 [B1A059-01, N-(1-Adamantylmethyl)-4-[4-[[4-(3-ethoxyphenyl)-2,6-dimethoxyphenyl]methyl]piperazin-1-yl]benzamide] | 7.7% | −5.5% |
| CCOc1cncc(-c2cc(OC)c(CN3CCN(c4ccc(C(=O)NCC56CC7CC(CC(C7)C5)C6)cc4)CC3)c(OC)c2)c1 [B1A060-01, N-(1-Adamantylmethyl)-4-[4-[[4-(5-ethoxypyridin-3-yl)-2,6-dimethoxyphenyl]methyl]piperazin-1-yl]benzamide] | 0.0% | – |
| CCOc1cccc(-c2cc(CN3CCN(c4ccc(C(=O)NCC56CC7CC(CC(C7)C5)C6)cc4)CC3)cc(C(F)(F)F)c2)c1 [B1A061-01, N-(1-Adamantylmethyl)-4-[4-[[3-(3-ethoxyphenyl)-5-(trifluoromethyl)phenyl]methyl]piperazin-1-yl]benzamide] | 5.3% | 1.1% |
